The results in this text go back to ChEMBL document CHEMBL1201862, “PubChem BioAssay data set” (2004).

Active and inactive are the calls of the source.

Assay [1] has as its target ADP-ribosylation factor GTPase-activating protein 1 (Rattus norvegicus, UniProt Q62848). The experiment in a line: Fluorescence polarization-based biochemical high throughput dose response screening assay to identify inhibitors of ADP-ribosylation factor GTPase activating protein 1 (ARFGAP1). The format is functional.
Assay [2] concerns the target T1, Sentrin-specific protease 1 (Homo sapiens, UniProt Q9P0U3).
T1 sequence (Q9P0U3 whole entry): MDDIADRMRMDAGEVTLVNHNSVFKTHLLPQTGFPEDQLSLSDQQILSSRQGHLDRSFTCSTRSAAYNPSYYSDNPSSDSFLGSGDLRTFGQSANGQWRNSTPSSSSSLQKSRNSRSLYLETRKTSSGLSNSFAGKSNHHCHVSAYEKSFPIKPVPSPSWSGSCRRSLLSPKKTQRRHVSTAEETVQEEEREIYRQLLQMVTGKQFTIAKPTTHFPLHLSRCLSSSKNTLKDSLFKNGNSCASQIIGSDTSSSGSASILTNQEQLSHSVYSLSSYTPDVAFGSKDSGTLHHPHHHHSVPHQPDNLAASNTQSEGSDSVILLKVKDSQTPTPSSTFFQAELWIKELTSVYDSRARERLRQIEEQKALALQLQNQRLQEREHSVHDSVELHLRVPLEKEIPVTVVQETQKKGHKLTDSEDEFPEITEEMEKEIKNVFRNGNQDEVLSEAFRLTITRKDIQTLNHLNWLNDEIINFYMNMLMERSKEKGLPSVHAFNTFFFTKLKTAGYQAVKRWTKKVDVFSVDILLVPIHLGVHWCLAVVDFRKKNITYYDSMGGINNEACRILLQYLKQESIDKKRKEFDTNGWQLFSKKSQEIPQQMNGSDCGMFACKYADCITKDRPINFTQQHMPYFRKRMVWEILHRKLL
The assay is described as follows: Dose response confirmation of small molecule inhibitors of the catalytic domain of the SUMO protease, SENP1 in a FRET assay. Particulars: read-out: IC50_Mean. Type of assay: functional.

For assay [3], the target named is T1, Sentrin-specific protease 1. The assay is described as follows: SENP1 catalytic domain blockers, concentration series – biochemical, kinetic FRET, dose response (AID 651697). The format is functional. The following applies: read-out: IC50_Mean.
Assay [4] has as its target T2, Aminopeptidase N (Plasmodium falciparum FcB1/Columbia, UniProt O96935).
T2 sequence (O96935 whole entry): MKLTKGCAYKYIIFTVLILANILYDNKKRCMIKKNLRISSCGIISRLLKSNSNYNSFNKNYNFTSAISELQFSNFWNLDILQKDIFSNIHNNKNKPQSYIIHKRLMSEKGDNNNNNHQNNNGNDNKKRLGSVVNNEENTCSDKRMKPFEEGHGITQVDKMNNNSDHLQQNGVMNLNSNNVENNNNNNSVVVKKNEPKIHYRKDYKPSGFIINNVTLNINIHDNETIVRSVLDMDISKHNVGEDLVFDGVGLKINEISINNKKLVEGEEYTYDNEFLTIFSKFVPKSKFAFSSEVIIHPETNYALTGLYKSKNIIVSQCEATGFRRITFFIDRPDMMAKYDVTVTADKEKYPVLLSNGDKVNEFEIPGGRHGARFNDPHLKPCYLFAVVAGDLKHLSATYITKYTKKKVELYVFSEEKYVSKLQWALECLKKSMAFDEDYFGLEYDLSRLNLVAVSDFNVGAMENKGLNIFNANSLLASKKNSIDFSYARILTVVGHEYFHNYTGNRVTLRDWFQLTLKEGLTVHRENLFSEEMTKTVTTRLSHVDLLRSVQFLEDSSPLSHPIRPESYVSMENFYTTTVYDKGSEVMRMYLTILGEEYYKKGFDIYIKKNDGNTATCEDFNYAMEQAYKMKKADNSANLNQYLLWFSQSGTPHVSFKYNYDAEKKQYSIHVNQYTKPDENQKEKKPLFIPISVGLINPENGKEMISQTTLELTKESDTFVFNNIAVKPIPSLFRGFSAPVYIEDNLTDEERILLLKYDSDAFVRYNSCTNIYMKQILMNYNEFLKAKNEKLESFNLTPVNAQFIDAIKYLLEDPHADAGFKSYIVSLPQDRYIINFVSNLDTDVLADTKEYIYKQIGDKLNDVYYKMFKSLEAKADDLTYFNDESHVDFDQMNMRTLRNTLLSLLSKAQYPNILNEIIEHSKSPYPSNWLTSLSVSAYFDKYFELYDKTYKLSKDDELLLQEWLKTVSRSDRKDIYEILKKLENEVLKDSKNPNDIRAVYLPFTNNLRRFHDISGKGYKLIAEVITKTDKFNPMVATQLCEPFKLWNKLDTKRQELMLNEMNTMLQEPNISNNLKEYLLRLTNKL
The assay is described as follows: malaria alanyl aminopeptidase activity blockers – biochemical, fluorogenic H-Leu-NHMec substrate, 1536-well (AID 1445). Further details: species or system Plasmodium falciparum 3D7, 3D7.

For assay [5], the target named is T3, Carboxy-terminal domain RNA polymerase II polypeptide A small phosphatase 1 (Homo sapiens, UniProt Q9GZU7).
T3 sequence (Q9GZU7 whole entry): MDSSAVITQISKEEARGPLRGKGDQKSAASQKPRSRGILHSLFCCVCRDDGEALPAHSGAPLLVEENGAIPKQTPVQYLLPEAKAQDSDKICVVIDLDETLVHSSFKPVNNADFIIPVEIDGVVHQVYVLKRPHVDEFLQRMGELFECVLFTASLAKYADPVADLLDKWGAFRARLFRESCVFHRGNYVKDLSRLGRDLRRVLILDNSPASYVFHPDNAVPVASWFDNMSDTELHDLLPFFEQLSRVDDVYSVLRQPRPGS
The experiment in a line: CTDSP1 inhibitors, concentration-response, biochemical, absorbance readout, ultra-high-throughput screen actives (AID 540297). The format is functional.

In assay [6] the target is Histone-lysine N-methyltransferase NSD2 (Homo sapiens, UniProt O96028). The format is biochemical.
Sequence of Histone-lysine N-methyltransferase NSD2 (O96028 whole entry): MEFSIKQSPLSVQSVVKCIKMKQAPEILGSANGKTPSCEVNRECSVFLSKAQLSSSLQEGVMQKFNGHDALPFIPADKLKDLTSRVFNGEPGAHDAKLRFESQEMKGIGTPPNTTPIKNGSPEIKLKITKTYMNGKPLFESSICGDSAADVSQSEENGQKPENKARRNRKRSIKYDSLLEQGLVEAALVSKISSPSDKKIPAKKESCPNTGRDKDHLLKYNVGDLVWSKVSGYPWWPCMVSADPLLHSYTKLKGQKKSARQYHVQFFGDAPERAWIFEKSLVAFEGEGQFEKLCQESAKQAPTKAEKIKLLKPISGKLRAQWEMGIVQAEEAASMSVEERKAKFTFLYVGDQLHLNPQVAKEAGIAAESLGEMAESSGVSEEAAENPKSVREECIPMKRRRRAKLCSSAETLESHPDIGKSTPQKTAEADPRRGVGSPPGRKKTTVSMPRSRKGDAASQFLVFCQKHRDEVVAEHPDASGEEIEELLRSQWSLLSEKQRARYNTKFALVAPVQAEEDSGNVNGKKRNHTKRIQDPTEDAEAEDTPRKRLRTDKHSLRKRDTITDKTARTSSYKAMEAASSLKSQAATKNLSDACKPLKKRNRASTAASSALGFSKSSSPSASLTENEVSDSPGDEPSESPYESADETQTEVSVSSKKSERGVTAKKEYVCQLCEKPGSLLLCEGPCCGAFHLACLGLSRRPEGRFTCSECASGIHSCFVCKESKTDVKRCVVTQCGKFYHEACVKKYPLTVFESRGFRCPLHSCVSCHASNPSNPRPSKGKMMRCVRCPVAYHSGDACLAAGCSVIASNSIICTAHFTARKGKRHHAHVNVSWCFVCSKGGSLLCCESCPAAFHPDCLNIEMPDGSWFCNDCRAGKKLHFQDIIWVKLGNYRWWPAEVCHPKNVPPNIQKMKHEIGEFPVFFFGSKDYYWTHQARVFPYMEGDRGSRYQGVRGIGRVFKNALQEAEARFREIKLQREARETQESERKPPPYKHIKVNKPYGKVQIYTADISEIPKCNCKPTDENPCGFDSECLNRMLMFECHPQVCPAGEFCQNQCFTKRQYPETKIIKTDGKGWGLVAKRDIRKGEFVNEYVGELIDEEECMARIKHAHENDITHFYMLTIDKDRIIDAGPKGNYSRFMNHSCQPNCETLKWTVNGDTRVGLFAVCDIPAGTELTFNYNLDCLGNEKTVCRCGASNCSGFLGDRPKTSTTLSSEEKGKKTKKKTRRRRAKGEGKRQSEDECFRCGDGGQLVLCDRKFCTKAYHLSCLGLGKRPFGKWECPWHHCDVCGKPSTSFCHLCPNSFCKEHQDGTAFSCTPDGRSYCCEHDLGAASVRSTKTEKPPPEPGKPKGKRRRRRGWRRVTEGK
In assay [7] the target is Beta-galactosidase (Escherichia coli, UniProt Q8VNN2). The assay is described as follows: Dose response counterscreen for EBI2 assay utilizing the enzyme, b-galactosidase. Type of assay: functional.
Sequence of Beta-galactosidase (Q8VNN2 whole entry): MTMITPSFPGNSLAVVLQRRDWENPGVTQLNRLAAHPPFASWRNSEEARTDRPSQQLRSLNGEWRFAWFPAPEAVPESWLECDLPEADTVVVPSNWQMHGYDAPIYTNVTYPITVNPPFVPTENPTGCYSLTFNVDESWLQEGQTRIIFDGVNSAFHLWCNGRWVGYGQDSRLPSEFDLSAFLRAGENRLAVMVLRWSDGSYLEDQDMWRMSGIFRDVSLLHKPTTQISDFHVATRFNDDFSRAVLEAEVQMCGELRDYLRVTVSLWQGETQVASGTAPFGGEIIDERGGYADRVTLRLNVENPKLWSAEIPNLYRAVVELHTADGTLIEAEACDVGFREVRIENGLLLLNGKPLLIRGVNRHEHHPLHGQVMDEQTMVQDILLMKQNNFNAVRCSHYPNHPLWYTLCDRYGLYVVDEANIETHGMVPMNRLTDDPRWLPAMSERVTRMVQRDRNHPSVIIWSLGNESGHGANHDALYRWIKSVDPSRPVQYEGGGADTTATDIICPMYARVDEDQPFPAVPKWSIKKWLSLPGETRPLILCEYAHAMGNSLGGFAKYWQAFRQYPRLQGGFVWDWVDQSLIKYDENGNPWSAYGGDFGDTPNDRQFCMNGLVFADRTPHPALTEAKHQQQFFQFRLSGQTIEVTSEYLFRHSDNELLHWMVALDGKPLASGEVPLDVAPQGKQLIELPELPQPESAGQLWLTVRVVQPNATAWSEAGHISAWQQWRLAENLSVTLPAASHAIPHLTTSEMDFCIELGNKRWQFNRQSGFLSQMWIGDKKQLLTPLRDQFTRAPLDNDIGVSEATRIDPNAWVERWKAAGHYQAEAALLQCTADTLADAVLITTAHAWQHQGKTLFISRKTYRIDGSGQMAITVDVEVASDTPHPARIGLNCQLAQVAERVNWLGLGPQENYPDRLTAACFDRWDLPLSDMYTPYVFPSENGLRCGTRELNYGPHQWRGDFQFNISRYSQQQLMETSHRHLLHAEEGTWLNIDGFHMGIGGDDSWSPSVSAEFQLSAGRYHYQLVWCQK
Assay [8] concerns the target T4, Insulin-degrading enzyme (Homo sapiens, UniProt P14735).
T4 sequence (P14735 whole entry): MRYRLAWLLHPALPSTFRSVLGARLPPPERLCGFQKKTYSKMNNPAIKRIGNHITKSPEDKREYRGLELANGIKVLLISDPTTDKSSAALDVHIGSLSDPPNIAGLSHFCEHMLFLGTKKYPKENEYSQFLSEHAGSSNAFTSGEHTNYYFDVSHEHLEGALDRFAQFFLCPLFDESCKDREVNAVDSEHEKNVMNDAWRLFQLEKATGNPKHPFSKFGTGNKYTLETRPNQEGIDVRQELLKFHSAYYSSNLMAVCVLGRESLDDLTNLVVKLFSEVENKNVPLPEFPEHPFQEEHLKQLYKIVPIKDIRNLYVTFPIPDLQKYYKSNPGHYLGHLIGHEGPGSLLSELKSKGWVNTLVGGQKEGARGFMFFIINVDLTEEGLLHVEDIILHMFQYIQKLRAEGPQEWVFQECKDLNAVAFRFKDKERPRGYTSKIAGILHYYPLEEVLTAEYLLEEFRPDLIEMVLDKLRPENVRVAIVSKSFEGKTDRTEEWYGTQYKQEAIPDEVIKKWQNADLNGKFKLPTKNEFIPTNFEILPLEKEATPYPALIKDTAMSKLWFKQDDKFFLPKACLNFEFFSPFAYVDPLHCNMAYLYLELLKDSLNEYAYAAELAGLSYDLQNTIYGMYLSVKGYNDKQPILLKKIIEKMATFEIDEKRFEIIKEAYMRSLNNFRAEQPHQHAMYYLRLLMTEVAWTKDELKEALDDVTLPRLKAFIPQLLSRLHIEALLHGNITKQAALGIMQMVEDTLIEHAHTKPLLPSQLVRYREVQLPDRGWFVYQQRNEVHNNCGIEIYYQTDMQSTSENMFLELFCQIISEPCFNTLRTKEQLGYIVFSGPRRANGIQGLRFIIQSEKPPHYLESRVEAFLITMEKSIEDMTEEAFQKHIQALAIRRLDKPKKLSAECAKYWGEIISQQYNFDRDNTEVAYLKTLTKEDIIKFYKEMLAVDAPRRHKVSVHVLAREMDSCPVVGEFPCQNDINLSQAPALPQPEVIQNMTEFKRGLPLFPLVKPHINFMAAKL
The experiment in a line: Dose Response: Fluorescence polarization-based cell-based high throughput dose response assay for inhibitors of insulin-degrading enzyme (IDE). [Related pubchem assays: 434962 (Primary screen (IDE inhibitors in singlicate)), 449730 (Counterscreen (Cytotoxicity in triplicate)), 435028 (Confirmation (IDE inhibitors in triplicate)), 434984 (Summary …. Type of assay: functional.

Assay [9] can be described thus: Counterscreen for IDE inhibitors: Luminescence-based cell-based high throughput dose response assay to identify compounds that are cytotoxic to HEK cells. [Related pubchem assays: 434962 (Primary screen (IDE inhibitors in singlicate)), 449730 (Counterscreen (Cytotoxicity in triplicate)), 435028 (Confirmation (IDE inhibitors in triplicate)) …. The format is functional. Particulars: HEK293.

The target in assay [10] is T5, Probable nicotinate-nucleotide adenylyltransferase (Staphylococcus aureus (strain N315), UniProt P65502). Type of assay: functional, Staphylococcus aureus subsp. aureus N315. The following applies: read-out: IC50_Mean.
T5 sequence (P65502 whole entry): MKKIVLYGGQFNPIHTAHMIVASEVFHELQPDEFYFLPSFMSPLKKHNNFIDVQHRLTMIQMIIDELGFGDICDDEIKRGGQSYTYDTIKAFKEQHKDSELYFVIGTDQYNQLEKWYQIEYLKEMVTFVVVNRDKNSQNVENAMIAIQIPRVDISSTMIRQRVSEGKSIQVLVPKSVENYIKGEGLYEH
The target of assay [11] is T5, Probable nicotinate-nucleotide adenylyltransferase. The format is functional, Staphylococcus aureus subsp. aureus N315.
Assay [12] concerns the target Heat shock protein HSP 90-alpha (Homo sapiens, UniProt P07900). Type of assay: functional, organism-based.
The target of assay [13] is T6, Sentrin-specific protease 8 (Homo sapiens, UniProt Q96LD8).
T6 sequence (Q96LD8 whole entry): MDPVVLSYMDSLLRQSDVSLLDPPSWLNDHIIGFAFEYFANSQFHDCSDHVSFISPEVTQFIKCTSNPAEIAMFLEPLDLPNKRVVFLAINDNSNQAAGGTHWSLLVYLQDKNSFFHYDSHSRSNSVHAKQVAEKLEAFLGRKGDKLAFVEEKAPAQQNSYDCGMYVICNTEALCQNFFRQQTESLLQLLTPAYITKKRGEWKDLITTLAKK
Type of assay: functional.

The target of assay [14] is T6, Sentrin-specific protease 8. Type of assay: functional. The source holds these as a separate data set.
Assay [15] is described as follows: Luminescence Cell-Based Dose Confirmation HTS to Identify Inhibitors of Platelet Dense Granule Release. [Related pubchem assays: 1663 (Primary HTS), 1678 (Summary of Project)]. The format is functional.
Assay [16] concerns BJ. The assay is described as follows: BJ-TERT-LT-ST fibroblast viability loss – cell-based, RAS-independent, luminescence, dose response (AID 1935).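 Note: BJ fibroblasts immortalized with TERT plus LT and ST oncogenes.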 The format is functional. The following applies: Homo sapiens.
Assay [17] concerns BJ. The experiment in a line: BJ-TERT fibroblast viability loss – cell-based, RAS-independent, luminescence, dose response (AID 1933). Type of assay: functional. The following applies: Homo sapiens.
Assay [18] relates to Vero. The experiment in a line: viability of Vero cells under compound – cytotoxicity control for flavivirus capping enzyme inhibitors (AID 588742). Type of assay: functional. Particulars: Chlorocebus sabaeus.
A short description of assay [19]: DRD fibroblast viability loss – cell-based, non-viral oncogenic, luminescence, dose response (AID 1934). The format is functional. Particulars: Homo sapiens.
The target in assay [20] is Luciferin 4-monooxygenase (Photinus pyralis, UniProt P08659). The assay is described as follows: inhibition of purified Photinus pyralis luciferase – biochemical, luminescence, dose response (AID 1891).
Sequence of Luciferin 4-monooxygenase (P08659 whole entry): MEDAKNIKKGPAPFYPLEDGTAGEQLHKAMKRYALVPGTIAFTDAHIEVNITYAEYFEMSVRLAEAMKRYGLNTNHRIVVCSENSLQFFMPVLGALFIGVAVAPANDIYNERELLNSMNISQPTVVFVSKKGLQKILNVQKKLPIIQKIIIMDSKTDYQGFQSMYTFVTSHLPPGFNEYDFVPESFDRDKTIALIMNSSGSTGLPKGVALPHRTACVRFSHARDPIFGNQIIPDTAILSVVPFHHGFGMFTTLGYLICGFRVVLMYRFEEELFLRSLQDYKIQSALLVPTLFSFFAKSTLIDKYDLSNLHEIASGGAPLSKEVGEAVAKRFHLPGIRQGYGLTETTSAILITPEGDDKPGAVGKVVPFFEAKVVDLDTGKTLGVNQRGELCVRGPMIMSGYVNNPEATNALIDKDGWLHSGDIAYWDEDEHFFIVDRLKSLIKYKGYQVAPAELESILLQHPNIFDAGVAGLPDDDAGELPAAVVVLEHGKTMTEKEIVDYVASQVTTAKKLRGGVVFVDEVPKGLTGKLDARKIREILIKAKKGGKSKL
The target in assay [21] is Genome polyprotein (dengue virus type 2, UniProt P29990). The experiment in a line: flavivirus cap methylation enzyme inhibition – biochemical, confirmation dose response, primary screen (AID 588689). Type of assay: functional.
Sequence of Genome polyprotein (P29990 2492-3391 limits assumed): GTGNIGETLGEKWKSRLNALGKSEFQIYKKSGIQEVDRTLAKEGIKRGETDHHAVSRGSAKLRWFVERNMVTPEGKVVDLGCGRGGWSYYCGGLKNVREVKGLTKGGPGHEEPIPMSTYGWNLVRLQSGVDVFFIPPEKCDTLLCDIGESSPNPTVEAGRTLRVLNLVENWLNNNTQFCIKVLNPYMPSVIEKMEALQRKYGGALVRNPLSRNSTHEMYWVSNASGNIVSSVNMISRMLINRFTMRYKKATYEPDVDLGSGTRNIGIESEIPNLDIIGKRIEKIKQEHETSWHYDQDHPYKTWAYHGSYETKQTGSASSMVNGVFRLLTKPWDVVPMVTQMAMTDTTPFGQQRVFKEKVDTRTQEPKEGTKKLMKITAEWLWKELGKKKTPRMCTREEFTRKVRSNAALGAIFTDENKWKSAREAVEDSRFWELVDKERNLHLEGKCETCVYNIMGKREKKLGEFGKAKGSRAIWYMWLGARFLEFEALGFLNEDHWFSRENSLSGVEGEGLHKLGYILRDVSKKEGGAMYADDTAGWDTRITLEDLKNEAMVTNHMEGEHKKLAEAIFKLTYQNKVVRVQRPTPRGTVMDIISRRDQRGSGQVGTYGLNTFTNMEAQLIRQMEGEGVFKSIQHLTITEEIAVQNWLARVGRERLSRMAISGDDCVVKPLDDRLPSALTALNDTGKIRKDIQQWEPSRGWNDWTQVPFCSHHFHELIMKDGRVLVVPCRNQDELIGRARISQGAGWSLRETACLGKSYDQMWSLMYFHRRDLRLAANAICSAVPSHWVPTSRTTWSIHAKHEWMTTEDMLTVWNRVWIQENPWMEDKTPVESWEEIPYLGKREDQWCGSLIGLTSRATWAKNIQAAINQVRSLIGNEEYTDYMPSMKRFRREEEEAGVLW
Assay [22] concerns BJ. The experiment in a line: cells. The format is functional, cell-based. Particulars: Homo sapiens.
The target in assay [23] is Glucose-6-phosphate 1-dehydrogenase (Homo sapiens, UniProt P11413). The experiment in a line: inhibition of Homo sapiens G6PD, dose series – biochemical, fluorescence, selectivity assay for P. falciparum G6PD inhibitor project, dose response (AID 504792). Type of assay: functional.
Sequence of Glucose-6-phosphate 1-dehydrogenase (P11413 whole entry): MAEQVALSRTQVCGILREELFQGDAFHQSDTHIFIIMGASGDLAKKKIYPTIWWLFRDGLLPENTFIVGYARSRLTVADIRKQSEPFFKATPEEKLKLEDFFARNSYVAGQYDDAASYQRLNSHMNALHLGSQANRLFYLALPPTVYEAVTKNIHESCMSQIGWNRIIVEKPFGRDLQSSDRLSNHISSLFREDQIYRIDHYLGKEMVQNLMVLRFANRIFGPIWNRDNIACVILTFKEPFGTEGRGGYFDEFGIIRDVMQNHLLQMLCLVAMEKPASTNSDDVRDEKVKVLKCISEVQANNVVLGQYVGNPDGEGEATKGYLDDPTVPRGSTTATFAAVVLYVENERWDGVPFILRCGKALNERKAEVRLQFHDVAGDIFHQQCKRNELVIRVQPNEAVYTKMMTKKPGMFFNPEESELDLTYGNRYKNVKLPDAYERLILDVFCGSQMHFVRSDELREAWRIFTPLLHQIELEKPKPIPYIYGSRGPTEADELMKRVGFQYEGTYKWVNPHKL

Sequence of ADP-ribosylation factor GTPase-activating protein 1 (Q62848 whole entry): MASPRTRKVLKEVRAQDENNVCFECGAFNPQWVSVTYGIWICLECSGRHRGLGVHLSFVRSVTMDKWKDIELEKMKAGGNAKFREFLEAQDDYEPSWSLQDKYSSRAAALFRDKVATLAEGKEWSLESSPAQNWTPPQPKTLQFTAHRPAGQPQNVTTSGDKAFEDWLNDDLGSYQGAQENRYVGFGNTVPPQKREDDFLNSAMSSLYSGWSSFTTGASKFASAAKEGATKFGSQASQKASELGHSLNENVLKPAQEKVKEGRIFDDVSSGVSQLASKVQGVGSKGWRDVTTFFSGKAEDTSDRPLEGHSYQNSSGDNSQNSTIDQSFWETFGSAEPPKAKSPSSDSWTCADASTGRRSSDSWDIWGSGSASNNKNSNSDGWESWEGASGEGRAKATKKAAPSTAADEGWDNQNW

For `CCOc1ccc2oc(C(=O)OCC(=O)N3CCCC(C)C3)c(C)c2c1` (centres undefined), the IC50 in [1] is 69.8 µM (inactive).

On to `COc1ccc([C@H]2CC(=O)C=C(c3cccc(Cl)c3O)C2)cc1OC`, for which the values for the IC50 in assay [2] and in assay [3] were 4.36 µM (active) and 8.62 µM (active), respectively.

For the compound `Cc1ccc(S(=O)(=O)NC2=NC(=O)/C(=C/c3ccc(Br)o3)S2)cc1`, the IC50 in assay [4] is 42.1 µM (active); in assay [5] it was 7.47 µM (active). Further, the AC50 in assay [6] was 14.1 µM (active).

As to `COc1ccc(OCC(=O)N2CCN(c3nnc(-c4ccc(C)cc4)c4ccccc34)CC2)cc1`, the IC50 in assay [7] was > 80 µM (inactive).

Consider `NC(=O)c1ccc(NC(=O)COC(=O)/C=C/c2cn(-c3ccccc3)nc2-c2cccnc2)cc1`, for which the IC50 in assay [1] was 57.4 µM (inactive).

As to `CCOc1cc(Br)cc(/C=C2\SC(Nc3ccccc3)=NC2=O)c1O`, the IC50 in assay [8] is 12.7 µM (not active); in assay [9] it was 35.1 µM (not active); in assay [2], 1.18 µM (active); in assay [3], 5.76 µM (active).

Turning to `COc1ccc(OC)c(/C=C/C(=O)OCC(=O)Nc2nnc(-c3ccccc3)o2)c1`, the IC50 in assay [10] is 42.5 µM (active); in [11] it was 9.28 µM (active).

Turning to `O=C(/C=C/c1ccc(F)cc1)N1CCN(c2ncccn2)CC1`, the IC50 in [7] is > 80 µM (inactive).

Consider `CCOc1ccc(Br)cc1C1=NN(C(C)=O)C(c2ccc([N+](=O)[O-])s2)O1` (centres undefined), for which the AC50 in assay [12] is 7.83 µM (active). Also, the IC50 in [13] was 9.04 µM (active); in assay [14], 11 µM (active).

As to `COc1cccc2nc3cc(C)c(C)cc3nc12`, the EC50 in assay [15] was 7.02 µM (active); in assay [16], 12.2 µM (inconclusive); in assay [17], 3.31 µM (active); in [19], 3.01 µM (active); in assay [20], 0.923 µM (active); in assay [22] it was 3.05 µM (active). In assay [18], the CC50 is 11.7 µM (active). Besides, the IC50 in assay [13] is 8.2 µM (active); in [21], 62.2 µM (active); in assay [14], 8.48 µM (active); in assay [23] it was 37.1 µM (inactive).
